In patent publication EP4806892A1, “CEREBLON E3 UBIQUITIN LIGASE INHIBITOR” (GAN & LEE PHARMACEUTICALS CO., LTD., priority 2023, dated 2025):
pIC50: −log10 of the molar value.

Tests used:
AR protein = target: T1, AR protein (Homo sapiens, UniProt P10275, T878A); test: AR protein degradation in LNCaP cells (Western blot); format: cell-based; details: 8 hours
T1 construct: AR-positive human prostate cancer cells (LNCaP, cell source: ATCC); host or cells: LNCaP
Protocol: AR-positive human prostate cancer cells (LNCaP, cell source: ATCC) were cultured in RPMI 1640 (ATCC catalog number 30-2001) containing 10% FBS (Hyclone catalog number SH30406.05), and the cells were inoculated into a six-well microplate (Thermo catalog number 140675) at a density of 1.5 × 10^5 cells/well. After the cells were cultured overnight in a carbon dioxide incubator (ESCO), the prepared compound of the present invention and the positive control sample ARV-766 (source: energy chemical) solution of different concentrations were added at a volume of 1 µL/well to make the final concentrations of the compound and the positive control sample reach 100nM and 10nM, respectively. At the same time, the corresponding solvent control was set and cultured for 8 hours. After 8 hours of culture, the culture medium was removed, the cells were washed with PBS, and RIPA lysis buffer containing 1% Protease Inhibitor Cocktail was added. After lysis and centrifugation, the total protein extract was obtained, and the protein concentration in the extract was detected by BCA method. Protein electrophoresis was performed using SDS-PAGE, and then the protein was transferred to a PVDF (Millipore Sigma catalog number PSRP010R5) membrane at a constant voltage of 100V for 60 minutes. The PVDF membrane was placed in a 5% milk powder 1×TBST solution and blocked at room temperature for 1 hour. The primary antibody solution (Anti-Androgen receptor, Cell Signaling Technology catalog number: 5153S; 1:2000 dilution) was prepared and incubated at 4°C overnight. The primary antibody solution was discarded and the PVDF membrane was washed with 1×TBST for 5 minutes each time, three times. The secondary antibody solution (Thermo, catalog number SA5-35571; 1:7500 dilution) was prepared and incubated at room temperature for 1 hour. The secondary antibody solution was discarded and the PVDF membrane was washed with 1×TBST for 5 minutes each time, three times. A dual-color infrared laser imaging system (Licor catalog number Odyssey CLX) was used for Western membrane imaging. The Image Studio software was used to analyze the grayscale of the bands. GAPDH protein bands were also detected for each sample as an internal reference. The AR protein degradation rate of the compound and the positive control sample was calculated based on the grayscale of the protein bands. Among them, "A" means degradation rate ≥ 50%, "B" means 50%> degradation rate ≥ 20%, "C" means 20% degradation rate ≥ 10%, and "D" means degradation rate less than 10%.

LNCAP cell = test: LNCaP cell proliferation inhibition (WST-8); format: cell-based; details: Homo sapiens, LNCaP FGC cells, 96 hours, read-out: IC50 for inhibiting LNCAP cell proliferation
Protocol: LNCaP FGC cells (ATCC, CLR-1740) were cultured in RPMI 1640 (ATCC, 30-2001) complete medium supplemented with 10% fetal bovine serum (Hyclone, SH30406.05). On the first day of the experiment, LNCaP FGC cells were seeded at a density of 5,000 cells/well in 96-well plates using RPMI 1640 medium supplemented with 10% fetal bovine serum, with 100 µL of cell suspension per well. The cells were cultured overnight in a 37°C, 5% CO2 cell incubator. On the second day, 100 µL of different concentrations of the compound to be tested and the positive control sample ARV-766 (source: Energy Chemical) prepared in culture medium were added to each well. The final concentration of the compound was 9 concentration points of 5-fold serial dilution starting from 10 µM. The wells to which 100 µL of RPMI 1640 culture medium containing 10% fetal bovine serum was added were set as controls. The cells were cultured in a cell culture incubator at 37°C and 5% CO2 for 96 hours. On the sixth day, the 96-well cell culture plate was removed, and 1/10 volume of WST-8 (Beytime, C0040) reagent was added to each well. The absorbance at 450 nm was detected using a microplate reader (TECAN, F50).

T1 sequence (P10275 whole entry T878A): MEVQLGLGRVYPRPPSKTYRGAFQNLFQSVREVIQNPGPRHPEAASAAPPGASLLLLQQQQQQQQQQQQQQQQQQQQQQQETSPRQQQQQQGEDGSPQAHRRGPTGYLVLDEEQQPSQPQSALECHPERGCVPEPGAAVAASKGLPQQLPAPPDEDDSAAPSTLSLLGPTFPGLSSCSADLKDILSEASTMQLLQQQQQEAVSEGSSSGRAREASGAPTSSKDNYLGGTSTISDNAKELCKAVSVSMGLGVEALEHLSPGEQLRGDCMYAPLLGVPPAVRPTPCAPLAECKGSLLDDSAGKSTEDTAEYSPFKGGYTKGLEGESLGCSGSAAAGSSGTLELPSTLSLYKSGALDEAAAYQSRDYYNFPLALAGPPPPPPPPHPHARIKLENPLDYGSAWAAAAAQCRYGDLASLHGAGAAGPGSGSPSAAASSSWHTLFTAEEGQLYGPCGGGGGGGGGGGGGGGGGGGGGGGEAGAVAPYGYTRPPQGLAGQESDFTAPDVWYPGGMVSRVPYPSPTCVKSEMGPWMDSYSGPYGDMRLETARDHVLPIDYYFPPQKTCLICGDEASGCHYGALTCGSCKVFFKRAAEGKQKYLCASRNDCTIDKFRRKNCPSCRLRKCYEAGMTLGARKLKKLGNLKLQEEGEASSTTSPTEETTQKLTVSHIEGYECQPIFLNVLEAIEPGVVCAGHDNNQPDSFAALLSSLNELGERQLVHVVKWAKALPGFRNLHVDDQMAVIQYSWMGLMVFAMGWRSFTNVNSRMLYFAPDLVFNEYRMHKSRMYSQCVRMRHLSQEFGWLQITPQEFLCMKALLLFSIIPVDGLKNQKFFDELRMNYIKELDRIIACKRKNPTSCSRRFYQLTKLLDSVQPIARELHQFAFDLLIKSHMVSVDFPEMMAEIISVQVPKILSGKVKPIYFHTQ
T1 sequence (Q96SW2 whole entry partner): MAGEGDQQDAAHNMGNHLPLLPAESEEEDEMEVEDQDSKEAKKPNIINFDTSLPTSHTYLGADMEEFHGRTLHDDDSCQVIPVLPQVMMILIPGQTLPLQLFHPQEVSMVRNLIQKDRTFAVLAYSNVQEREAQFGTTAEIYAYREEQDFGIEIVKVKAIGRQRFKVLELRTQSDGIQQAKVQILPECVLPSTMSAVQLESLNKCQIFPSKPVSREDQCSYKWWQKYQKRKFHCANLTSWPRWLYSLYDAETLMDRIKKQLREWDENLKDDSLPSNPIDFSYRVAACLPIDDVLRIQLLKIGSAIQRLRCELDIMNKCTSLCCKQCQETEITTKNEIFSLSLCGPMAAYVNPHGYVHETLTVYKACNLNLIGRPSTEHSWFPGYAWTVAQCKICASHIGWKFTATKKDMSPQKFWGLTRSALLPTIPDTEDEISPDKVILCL

Row | Compound | Degradation rate of AR protein in LNCAP cells (AR protein; 10 nM) | Degradation rate of AR protein in LNCAP cells (AR protein; 100 nM) | pIC50 (LNCAP cell)
1 | COc1cc(O[C@H]2C(C)(C)[C@H](NC(=O)c3ccc(N4CCC(CN5CCN(c6ccc(C(=O)N[C@H]7CCC(=O)NC7=O)c(F)c6)CC5)CC4)cc3)C2(C)C)ccc1C#N [ARV766, reference compound] | B (50%> degradation rate ≥ 20%) | A (degradation rate ≥ 50%) | 6.31
2 | C[C@H]1CC2(CCN(c3ccc(C(=O)N4CCC(CN5CCC6(CC5)CN(C)c5ccc(N7CCC(=O)NC7=O)cc5O6)CC4)cc3)CC2)CN1c1ccc(C#N)c(Cl)c1 [A-P-235, (S)-2-chloro-4-(8-(4-(4-((7-(2,4-dioxotetrahydropyrimidin-1(2H)-yl)-4-methyl-3,4-dihydrospiro[benzo[b][1,4]oxazin-2,4'-piperidine]-1'-yl)methyl)piperidine-1-carbonyl)phenyl)-3-methyl-2,8-diazaspiro[4.5]decane-2-yl)benzonitrile] | A (degradation rate ≥ 50%) | A (degradation rate ≥ 50%) | < 4.30
3 | C[C@H]1CC2(CCN(c3ccc(C(=O)N4CCC(CN5CCC6(COc7cc(N8CCC(=O)NC8=O)ccc76)C(F)(F)C5)CC4)cc3)CC2)CN1c1ccc(C#N)c(Cl)c1 (stereo partly drawn) [A-P-233] | A (degradation rate ≥ 50%) | A (degradation rate ≥ 50%) | 7.11
4 | COc1cc(O[C@H]2C(C)(C)[C@H](NC(=O)c3ccc(N4CCC(F)(CN5CCN6c7ccc(N8CCC(=O)NC8=O)cc7OCC[C@H]6C5)CC4)cc3)C2(C)C)ccc1C#N [A-P-196] | B (50%> degradation rate ≥ 20%) | A (degradation rate ≥ 50%) | 6.62
5 | C[C@H]1CC2(CCN(c3ccc(C(=O)N4CCC(CN5CCN6c7ccc(N8CCC(=O)NC8=O)cc7OCC[C@H]6C5)CC4)cc3)CC2)CN1c1ccc(C#N)c(C(F)(F)F)c1 [A-P-195] | A (degradation rate ≥ 50%) | A (degradation rate ≥ 50%) | 7.00
